Results taken from US5876956A, “Methods for identification or purification of cells containing an enzymatic intracellular marker” (Johns Hopkins University School of Medicine, priority 1995, dated 1999).
Blank lines part the entries; values can stand above or below the molecule they belong to.

Assays:
Human CFU-GM = assay: Growth of human bone marrow hematopoietic progenitors after DAAA and flow cytometry; assay type: cell-based
Experimental: In an attempt to examine cytosolic ALDH on a single-cell basis, leukemia cell lines and bone marrow cells were incubated with the fluorescent substrate DAAA, washed, and subjected to flow cytometry. The cell lines and plastic nonadherent mononuclear marrow cells were incubated with 50 μM DAAA at 10^6 cells/ml for 30 minutes at 37° C. After washing twice, some mononuclear marrow cells were treated with fluorescent monoclonal antibodies (Becton-Dickinson, Mountain View, Calif.), as previously described ([…] et al., Blood 74:1517, 1989) to study cytosolic ALDH activity of CD34^+, CD19^+, and CD5^+ marrow cells. The cells were sorted on a Epics 753 Dual Laser Flow Cytometer (Coulter Electronics, Hialeah, Fla.) equipped with two 90-5 water cooled argon lasers (Coherent, Palo Alto, Calif.). Dansyl fluorescence was excited at both 351.1 nm and 363.8 nm using a multiline ultraviolet filter, and was detected at 521 nm. Cytosolic ALDH activity was estimated by the corrected mean fluorescence intensity (MFI) ([…] et al., Blood 75:1947, 1990; […], 1989, supra] of dansyl staining, which equals the mean fluorescence of unstained cells subtracted from the mean fluorescence of cells treated with DAAA. The mean fluorescence level represents the average channel value for a given sample on the flow cytometer. To confirm that cellular dansyl fluorescence was the result of the activity of cytosolic ALDH, L1210/CPA cells were incubated with 50 μM 4-(diethylamino) benzaldehyde (DEAB) for 15 minutes at 37° C. prior to the DAAA incubations to inhibit cytosolic ALDH activity. […] (J. E. Russo et al., Biochem Pharmacol 37:1639, 1988) L1210/CPA cells were also incubated with 50 μM dansyl glycine (DG) alone (Sigma, St. Louis, Mo.) at 10^6 cells/ml for 30 minutes at 37° C. […] The data in Table 1 show the results of flow cytometry sorting of human and mouse marrow cells based on their fluorescence intensity after incubation with DAAA. The assays of progenitor content is also shown. Isolation of bone marrow cells with high ALDH expression by fluorescence sorting based on DAAA was enriched for hematopoietic progenitors capable of both in vitro and in vivo growth. The 5% of human bone marrow cells with highest dansyl fluorescence produced substantially more CFU-GM than the 5% of cells with lowest dansyl fluorescence (p=0.007, T-test). Similarly, using DAAA-derived fluorescence, it was possible to obtain a composition that is enriched for CFU-GM (p=0.03) and the more primitive CFU-S (p=0.01) from mouse bone marrow.

Mouse CFU-GM = assay: Growth of mouse bone marrow progenitors isolated by DAAA and flow cytometry; assay type: cell-based
Experimental: (§1) In an attempt to examine cytosolic ALDH on a single-cell basis, leukemia cell lines and bone marrow cells were incubated with the fluorescent substrate DAAA, washed, and subjected to flow cytometry. The cell lines and plastic nonadherent mononuclear marrow cells were incubated with 50 μM DAAA at 10^6 cells/ml for 30 minutes at 37° C. After washing twice, some mononuclear marrow cells were treated with fluorescent monoclonal antibodies (Becton-Dickinson, Mountain View, Calif.), as previously described ([…] et al., Blood 74:1517, 1989) to study cytosolic ALDH activity of CD34^+, CD19^+, and CD5^+ marrow cells. […] Dansyl fluorescence was excited at both 351.1 nm and 363.8 nm using a multiline ultraviolet filter, and was detected at 521 nm. Cytosolic ALDH activity was estimated by the corrected mean fluorescence intensity (MFI) ([…] et al., Blood 75:1947, 1990; […], 1989, supra] of dansyl staining, which equals the mean fluorescence of unstained cells subtracted from the mean fluorescence of cells treated with DAAA. The mean fluorescence level represents the average channel value for a given sample on the flow cytometer. To confirm that cellular dansyl fluorescence was the result of the activity of cytosolic ALDH, L1210/CPA cells were incubated with 50 μM 4-(diethylamino) benzaldehyde (DEAB) for 15 minutes at 37° C. prior to the DAAA incubations to inhibit cytosolic ALDH activity. […]

Mouse CFU-S (day 8) = Mouse CFU-S (day 8) of bone marrow cells isolated by DAAA and flow cytometry; assay type: in vivo
Experimental: as §1

cytosolic ALDH = details: J. E. Russo et al., Biochem Pharmacol 37:1639, 1988; cited from earlier work
cells = details: in vitro and in vivo; J. E. Russo et al., 1988; cited from earlier work
L1210/CPA cells = assay: Flow cytometry of dansyl fluorescence in cells incubated with the compound; assay type: cell-based, mouse; details: L1210/CPA cells incubated with 50 μM dansyl glycine alone, 10^6 cells/ml, 30 minutes, 37° C.; FIG. 1E
Experimental: In an attempt to examine cytosolic ALDH on a single-cell basis, leukemia cell lines and bone marrow cells were incubated with the fluorescent substrate DAAA, washed, and subjected to flow cytometry. The cell lines and plastic nonadherent mononuclear marrow cells were incubated with 50 μM DAAA at 10^6 cells/ml for 30 minutes at 37° C. After washing twice, some mononuclear marrow cells were treated with fluorescent monoclonal antibodies (Becton-Dickinson, Mountain View, Calif.), as previously described (M. B. Kastan et al., Blood 74:1517, 1989) to study cytosolic ALDH activity of CD34^+, CD19^+, and CD5^+ marrow cells. The cells were sorted on a Epics 753 Dual Laser Flow Cytometer (Coulter Electronics, Hialeah, Fla.) equipped with two 90-5 water cooled argon lasers (Coherent, Palo Alto, Calif.). Dansyl fluorescence was excited at both 351.1 nm and 363.8 nm using a multiline ultraviolet filter, and was detected at 521 nm. […]

[1] = 5% cells with the highest fluorescence after DAAA
[2] = 5% of cells with the lowest fluorescence after DAAA

harm to cells / progenitor growth after DAAA treatment (Human CFU-GM; human bone marrow cells treated with DAAA and processed by flow cytometry (not sorted)): did not appear to harm cells
Colonies/10^5 cells, Human CFU-GM, Stained MNMC (Human CFU-GM; mononuclear marrow cells incubated with DAAA and processed (but not sorted) by flow cytometry, unstained MNMC 163 ± 5): 155 ± 5 Colonies/10^5 cells
SMILES: CN(C)c1cccc2c(S(=O)(=O)NCC=O)cccc12 [DAAA, N-dansyl aminoacetaldehyde]
Colonies/10^5 cells, Human CFU-GM, Dansyl+ MNMC (Human CFU-GM; [1]): 216 ± 13 Colonies/10^5 cells
Colonies/10^5 cells, Human CFU-GM, Dansyl- MNMC (Human CFU-GM; [2]): 67 ± 20 Colonies/10^5 cells
Colonies/10^5 cells, Mouse CFU-GM, Dansyl+ (Mouse CFU-GM; [1]): 800 ± 185 Colonies/10^5 cells
Colonies/10^5 cells, Mouse CFU-GM, Dansyl- (Mouse CFU-GM; [2]): 250 ± 60 Colonies/10^5 cells
Colonies/10^5 cells, Mouse CFU-S (day 8), Dansyl+ (Mouse CFU-S (day 8); [1]): 23.5 ± 1 Colonies/10^5 cells
Colonies/10^5 cells, Mouse CFU-S (day 8), Dansyl- (Mouse CFU-S (day 8); [2]): 7 ± 1.3 Colonies/10^5 cells

SMILES: CCN(CC)c1ccc(C=O)cc1 [DEAB, 4-(diethylamino) benzaldehyde]
inhibition of cytosolic ALDH (cytosolic ALDH): specific, competitive inhibitor of cytosolic ALDH
toxicity to cells (cells): nontoxic to cells in vitro and in vivo

SMILES: CN(C)c1cccc2c(S(=O)(=O)NCC(=O)O)cccc12 [dansyl glycine]
dansyl fluorescence of cells (L1210/CPA cells): no detectable fluorescence
